Measurements taken from patent US20160106727A1, “COMPOSITION AND METHOD FOR THE TREATMENT OF NEURODEGENERATION” (Wright State University, priority 2011, published 2016).

Test system: neurogenesis in the subventricular zone of the lateral brain ventricles
Assay: Adult neurogenesis by doublecortin staining after two weeks of daily oral treatment
Assay type: in vivo, male Wistar rats
Conditions: for Fold increase in neurogenesis over vehicle control: anterior subventricular zone
[1] = doublecortin staining, two weeks daily oral

Source text: Animals, more specifically, male Wistar rats were used to measure differences in neurogenesis in the subventricular zone of the lateral brain ventricles in response to the various drug treatments using doublecortin primary antibody to measure neurogenesis.
The male Wistar rats aged approximately one year old were used, wherein a doublecortin antibody was used to measure neurogenesis with a horseradish peroxidase labeled secondary antibody developed with 3,3′-Diaminobenzidine (DAB).
Wherein, the male Wistar rats were given voluntary oral drug treatments daily for a two week period.
For example, four groups of Wistar rats, n=6 in each, were given a vehicle control or one of three drug compositions which are voluntary orally administered for a period of two weeks, euthanized and the brain dissected for immunohistochemistry.
Specifically, all dissected animal brains were blocked and post fixed for 24 hours in 4% paraformaldehyde in PBS at 5° C. The brains were then put into 30% sucrose in PBS at 5° C. for at least 3 days and then cut on a cryostat into 50 micron coronal sections. The sections were collected into PBS, blocked for one hour with PBS containing 1% Tween and 3% secondary antibody host serum, then reacted with doublecortin primary antibody, 1:500 dilution in blocking solution. […] Free-floating sections were washed with 3 washes of PBS containing 0.1% Tween, then incubated in the dark with secondary antibodies, Cy3-labeled Donkey anti-rabbit IgG, FITC-labeled Donkey anti-sheep IgG; Jackson Immunology, at a 1:100 dilution in blocking solution for 2.5 hours at room temperature or a Vector ABC elite horseradish peroxidase DAB kit was used according to kit instructions, mounting the final washed sections on gel-subbed slides. Sections with fluorescent secondary antibodies were washed three times with PBS containing 0.1% Tween and then the sections were mounted on gel-subbed slides.
ANOVA (analysis of variance) was used for statistical analysis.

## CNCCC(Oc1ccc(C(F)(F)F)cc1)c1ccccc1 (stereo not shown) [fluoxetine]
[1]
  Fold increase in neurogenesis over vehicle control: approximately 10 fold
  Neurogenesis compared to vehicle control (in words): significant increase in neurogenesis
Doublecortin staining, two weeks daily oral, listed as Fluoxetine
  Fold increase in neurogenesis over vehicle control: 10 fold
Subventricular zone of anterior lateral ventricles, daily voluntary oral treatment for two weeks, FIG. 1E
  Area of doublecortin staining (mean): 0.5727 mm^2
